Experimental data: the NIST ThermoML archive (doi:10.1021/je900596d)

Conditions: 323.37 K, Liquid, Vibrating tube method

FC(F)=C(F)C(F)(F)F [hexafluoropropene]
Conditions | mass density [kg/m3]
1440.4 kPa | 1174.76
1445.7 kPa | 1175
1451.5 kPa | 1175.02
1457.1 kPa | 1175.21
1466.8 kPa | 1175.47
1497.2 kPa | 1176.12
1510 kPa | 1176.43
1522.1 kPa | 1176.69
1537.1 kPa | 1176.99
1549.7 kPa | 1177.31
1563.1 kPa | 1177.61
1577.9 kPa | 1178.01
1593 kPa | 1178.25
1606 kPa | 1178.65
1618.2 kPa | 1178.79
1633 kPa | 1179.18
1650.5 kPa | 1179.47
1665.3 kPa | 1179.86
1679.6 kPa | 1180.16
1693.1 kPa | 1180.45
1699.6 kPa | 1180.56
1718.6 kPa | 1180.95
1737.4 kPa | 1181.34
1760 kPa | 1181.89
1778.2 kPa | 1182.25
1797.3 kPa | 1182.59
1819.1 kPa | 1183.13
1845.8 kPa | 1183.69
1870.4 kPa | 1184.11
1897.4 kPa | 1184.74
1924.8 kPa | 1185.37
1943.5 kPa | 1185.64
1970 kPa | 1186.24
1988.8 kPa | 1186.54
2013.8 kPa | 1187.15
2040.4 kPa | 1187.71
2074.7 kPa | 1188.33
2102.6 kPa | 1188.84
2129.9 kPa | 1189.44
2157.7 kPa | 1190.03
2186.2 kPa | 1190.47
2213.3 kPa | 1191.16
2277.1 kPa | 1192.28
2311.9 kPa | 1192.94
2338 kPa | 1193.41
2366.9 kPa | 1194
2396.7 kPa | 1194.59
2428 kPa | 1195.18
2456.3 kPa | 1195.7
2482.6 kPa | 1196.22
2511.2 kPa | 1196.77
2547.6 kPa | 1197.4
2588.4 kPa | 1198.21
2628 kPa | 1198.83
2671.3 kPa | 1199.65
2714.7 kPa | 1200.41
2754.7 kPa | 1201.07
2795.1 kPa | 1201.67
2833.2 kPa | 1202.46
2876 kPa | 1203.06
2913.9 kPa | 1203.87
2953 kPa | 1204.53
2989.2 kPa | 1205.13
3027.6 kPa | 1205.88
3069.8 kPa | 1206.59
3107.8 kPa | 1207.26
3148.5 kPa | 1207.95
